In the kinase profiling compilation of Christmann-Franck et al. (2016):

Tests used:
Experiment in all cases: radiometric filter-binding kinase assay, Kinase HotSpot
Conditions in all cases: compound 0.5 µM; ATP 10 µM
MAP4K5 (human) = MAP4K5 (human) (UniProt Q9Y4K4)
SRMS (human) = SRMS (human) (UniProt Q9H3Y6)
CAMK2B (human) = CAMK2B (human) (UniProt Q13554)
IKBKB (human) = IKBKB (human) (UniProt O14920)
MAPK3 (human) = MAPK3 (human) (UniProt P27361)
TYRO3 (human) = TYRO3 (human) (UniProt Q06418)
NTRK3 (human) = NTRK3 (human) (UniProt Q16288)
PDPK1 (human) = PDPK1 (human) (UniProt O15530)
FGFR1 (human) = FGFR1 (human) (UniProt P11362)
CSNK2A2 (human) = CSNK2A2 (human) (UniProt P19784)
STK3 (human) = STK3 (human) (UniProt Q13188)
IKBKE (human) = IKBKE (human) (UniProt Q14164)
CDK4 CCND1 (human) = CDK4 CCND1 (human) (UniProt P24385+P11802)
ROCK2 (human) = ROCK2 (human) (UniProt O75116)
MAPK13 (human) = MAPK13 (human) (UniProt O15264)
MELK (human) = MELK (human) (UniProt Q14680)
FES (human) = FES (human) (UniProt P07332)
HIPK3 (human) = HIPK3 (human) (UniProt Q9H422)
EPHA8 (human) = EPHA8 (human) (UniProt P29322)
MAP3K5 (human) = MAP3K5 (human) (UniProt Q99683)
PHKG1 (human) = PHKG1 (human) (UniProt Q16816)
TAOK3 (human) = TAOK3 (human) (UniProt Q9H2K8)
MAP4K4 (human) = MAP4K4 (human) (UniProt O95819)
CSNK1G1 (human) = CSNK1G1 (human) (UniProt Q9HCP0)
CLK2 (human) = CLK2 (human) (UniProt P49760)
CDK1 CCNB1 (human) = CDK1 CCNB1 (human) (UniProt P06493+P14635)
EPHB3 (human) = EPHB3 (human) (UniProt P54753)
MAP2K1 (human) = MAP2K1 (human) (UniProt Q02750)
ULK2 (human) = ULK2 (human) (UniProt Q8IYT8)
AKT1 (human) = AKT1 (human) (UniProt P31749)
CHEK1 (human) = CHEK1 (human) (UniProt O14757)
CDK3 CCNE1 (human) = CDK3 CCNE1 (human) (UniProt Q00526+P24864)
GRK4 (human) = GRK4 (human) (UniProt P32298)
MARK1 (human) = MARK1 (human) (UniProt Q9P0L2)
CAMK1G (human) = CAMK1G (human) (UniProt Q96NX5)
EPHA5 (human) = EPHA5 (human) (UniProt P54756)
CSNK1G3 (human) = CSNK1G3 (human) (UniProt Q9Y6M4)
FGFR4 (human) = FGFR4 (human) (UniProt P22455)
SLK (human) = SLK (human) (UniProt Q9H2G2)
CAMK2D (human) = CAMK2D (human) (UniProt Q13557)
CAMK1D (human) = CAMK1D (human) (UniProt Q8IU85)

Sequence of MARK1 (human) (Q9P0L2 whole entry, looked up): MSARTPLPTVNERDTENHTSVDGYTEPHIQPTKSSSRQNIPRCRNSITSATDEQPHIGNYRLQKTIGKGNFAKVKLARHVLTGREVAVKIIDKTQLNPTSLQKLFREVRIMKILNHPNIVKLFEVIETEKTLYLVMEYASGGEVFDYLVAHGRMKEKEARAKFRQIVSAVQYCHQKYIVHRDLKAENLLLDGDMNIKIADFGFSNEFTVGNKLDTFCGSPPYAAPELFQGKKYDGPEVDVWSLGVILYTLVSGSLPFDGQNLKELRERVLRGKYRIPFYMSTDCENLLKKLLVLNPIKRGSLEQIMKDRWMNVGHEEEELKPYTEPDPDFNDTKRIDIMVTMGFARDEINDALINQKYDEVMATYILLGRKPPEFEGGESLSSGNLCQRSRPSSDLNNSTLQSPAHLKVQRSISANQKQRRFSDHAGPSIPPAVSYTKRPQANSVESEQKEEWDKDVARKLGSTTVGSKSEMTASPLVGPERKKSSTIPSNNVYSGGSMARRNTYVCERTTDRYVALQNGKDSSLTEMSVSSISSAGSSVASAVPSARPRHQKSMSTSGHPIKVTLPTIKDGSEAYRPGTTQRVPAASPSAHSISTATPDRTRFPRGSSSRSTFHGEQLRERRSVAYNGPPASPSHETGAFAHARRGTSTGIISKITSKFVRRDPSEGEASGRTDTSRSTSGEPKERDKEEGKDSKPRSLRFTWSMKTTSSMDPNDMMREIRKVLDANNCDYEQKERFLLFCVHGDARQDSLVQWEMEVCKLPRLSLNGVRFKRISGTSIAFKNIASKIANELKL
Sequence of SLK (human) (Q9H2G2 whole entry, looked up): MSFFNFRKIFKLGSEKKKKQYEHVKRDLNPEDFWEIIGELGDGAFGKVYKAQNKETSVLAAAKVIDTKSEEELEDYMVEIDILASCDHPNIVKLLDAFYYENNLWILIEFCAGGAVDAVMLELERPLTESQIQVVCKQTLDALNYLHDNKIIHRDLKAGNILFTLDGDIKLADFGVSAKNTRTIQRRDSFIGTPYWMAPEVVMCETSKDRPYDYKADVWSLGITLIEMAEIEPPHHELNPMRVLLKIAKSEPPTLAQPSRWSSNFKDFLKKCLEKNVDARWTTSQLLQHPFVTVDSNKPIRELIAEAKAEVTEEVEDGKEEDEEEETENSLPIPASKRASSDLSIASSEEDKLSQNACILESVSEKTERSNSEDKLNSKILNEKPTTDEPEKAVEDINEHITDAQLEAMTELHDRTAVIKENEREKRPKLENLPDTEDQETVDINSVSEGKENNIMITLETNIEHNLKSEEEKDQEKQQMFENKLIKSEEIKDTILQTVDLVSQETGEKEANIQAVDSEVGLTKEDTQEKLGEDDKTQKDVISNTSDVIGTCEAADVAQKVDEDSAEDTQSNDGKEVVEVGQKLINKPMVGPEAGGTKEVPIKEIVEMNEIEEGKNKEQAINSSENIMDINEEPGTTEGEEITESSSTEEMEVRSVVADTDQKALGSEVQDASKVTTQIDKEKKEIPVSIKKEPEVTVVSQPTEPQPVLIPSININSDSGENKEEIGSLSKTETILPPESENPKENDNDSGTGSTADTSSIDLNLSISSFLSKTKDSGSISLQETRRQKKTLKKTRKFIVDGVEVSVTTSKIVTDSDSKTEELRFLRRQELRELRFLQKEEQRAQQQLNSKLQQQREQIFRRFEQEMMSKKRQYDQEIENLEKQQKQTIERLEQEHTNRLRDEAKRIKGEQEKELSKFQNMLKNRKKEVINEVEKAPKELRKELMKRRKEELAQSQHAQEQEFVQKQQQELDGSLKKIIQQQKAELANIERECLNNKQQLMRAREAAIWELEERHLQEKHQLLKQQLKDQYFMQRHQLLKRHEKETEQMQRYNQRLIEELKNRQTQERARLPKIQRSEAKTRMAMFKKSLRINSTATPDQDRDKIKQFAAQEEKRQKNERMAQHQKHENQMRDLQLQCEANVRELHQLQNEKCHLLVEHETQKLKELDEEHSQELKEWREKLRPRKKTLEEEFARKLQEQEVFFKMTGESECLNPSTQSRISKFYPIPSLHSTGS
Sequence of MAP2K1 (human) (Q02750 whole entry, looked up): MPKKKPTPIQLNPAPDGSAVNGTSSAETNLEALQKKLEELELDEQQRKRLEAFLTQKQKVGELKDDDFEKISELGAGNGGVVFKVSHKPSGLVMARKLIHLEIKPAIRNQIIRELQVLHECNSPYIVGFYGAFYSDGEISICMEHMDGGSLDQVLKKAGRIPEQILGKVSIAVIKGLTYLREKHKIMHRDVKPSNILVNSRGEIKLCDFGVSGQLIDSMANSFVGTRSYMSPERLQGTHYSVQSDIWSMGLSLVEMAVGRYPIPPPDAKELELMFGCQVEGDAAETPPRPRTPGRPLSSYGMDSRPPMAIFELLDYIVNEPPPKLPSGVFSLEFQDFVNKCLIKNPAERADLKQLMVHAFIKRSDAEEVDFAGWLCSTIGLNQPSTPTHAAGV
Sequence of IKBKE (human) (Q14164 whole entry, looked up): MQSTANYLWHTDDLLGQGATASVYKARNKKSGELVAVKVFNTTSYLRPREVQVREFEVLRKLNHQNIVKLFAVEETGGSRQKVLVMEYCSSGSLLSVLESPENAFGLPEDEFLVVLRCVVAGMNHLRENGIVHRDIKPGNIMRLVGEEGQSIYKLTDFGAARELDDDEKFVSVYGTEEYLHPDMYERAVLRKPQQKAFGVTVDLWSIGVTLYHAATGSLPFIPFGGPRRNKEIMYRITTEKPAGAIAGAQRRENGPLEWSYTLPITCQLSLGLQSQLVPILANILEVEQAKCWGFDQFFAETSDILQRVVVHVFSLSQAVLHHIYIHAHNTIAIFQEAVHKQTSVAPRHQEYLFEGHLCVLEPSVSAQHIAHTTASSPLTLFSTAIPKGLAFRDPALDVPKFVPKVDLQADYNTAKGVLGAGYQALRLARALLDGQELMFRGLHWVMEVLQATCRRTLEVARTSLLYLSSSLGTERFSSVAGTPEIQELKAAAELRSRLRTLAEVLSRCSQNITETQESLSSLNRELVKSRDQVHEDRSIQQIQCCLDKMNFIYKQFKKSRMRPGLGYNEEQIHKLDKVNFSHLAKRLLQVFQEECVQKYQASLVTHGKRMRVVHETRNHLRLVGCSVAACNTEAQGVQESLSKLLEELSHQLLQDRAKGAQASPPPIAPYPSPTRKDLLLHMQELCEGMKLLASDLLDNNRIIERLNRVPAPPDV
Sequence of HIPK3 (human) (Q9H422 whole entry, looked up): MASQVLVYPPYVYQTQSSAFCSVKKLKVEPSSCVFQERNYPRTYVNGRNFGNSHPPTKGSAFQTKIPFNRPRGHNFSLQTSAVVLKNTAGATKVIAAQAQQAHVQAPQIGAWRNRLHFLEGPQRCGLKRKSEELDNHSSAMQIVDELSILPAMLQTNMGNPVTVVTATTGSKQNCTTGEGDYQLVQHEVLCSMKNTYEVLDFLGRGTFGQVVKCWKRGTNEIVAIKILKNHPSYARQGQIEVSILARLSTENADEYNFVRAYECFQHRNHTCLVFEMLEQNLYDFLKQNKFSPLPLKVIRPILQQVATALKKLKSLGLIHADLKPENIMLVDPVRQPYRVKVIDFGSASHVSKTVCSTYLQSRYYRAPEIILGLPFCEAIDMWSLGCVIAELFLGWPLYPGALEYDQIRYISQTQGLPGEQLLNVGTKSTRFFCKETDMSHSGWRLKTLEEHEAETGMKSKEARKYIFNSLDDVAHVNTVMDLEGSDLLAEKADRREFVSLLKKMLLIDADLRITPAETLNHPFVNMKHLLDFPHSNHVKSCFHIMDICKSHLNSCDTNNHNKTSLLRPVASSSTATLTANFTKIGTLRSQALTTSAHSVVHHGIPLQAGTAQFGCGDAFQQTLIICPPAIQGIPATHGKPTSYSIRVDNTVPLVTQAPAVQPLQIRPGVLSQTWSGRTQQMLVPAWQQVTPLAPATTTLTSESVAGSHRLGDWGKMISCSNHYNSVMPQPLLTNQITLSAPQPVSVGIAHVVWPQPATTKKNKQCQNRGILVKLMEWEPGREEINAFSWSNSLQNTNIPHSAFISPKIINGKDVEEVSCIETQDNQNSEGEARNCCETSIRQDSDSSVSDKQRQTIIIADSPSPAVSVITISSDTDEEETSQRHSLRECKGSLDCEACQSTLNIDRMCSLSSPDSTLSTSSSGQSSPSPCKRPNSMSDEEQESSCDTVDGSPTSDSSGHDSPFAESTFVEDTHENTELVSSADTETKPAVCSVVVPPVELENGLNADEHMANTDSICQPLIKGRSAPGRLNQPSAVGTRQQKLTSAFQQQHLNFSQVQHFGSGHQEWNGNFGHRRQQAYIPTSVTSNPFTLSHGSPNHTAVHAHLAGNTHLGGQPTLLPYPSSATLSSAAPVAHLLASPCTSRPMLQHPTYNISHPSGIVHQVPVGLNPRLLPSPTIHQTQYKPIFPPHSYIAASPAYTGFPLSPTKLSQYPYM
Sequence of CSNK2A2 (human) (P19784 whole entry, looked up): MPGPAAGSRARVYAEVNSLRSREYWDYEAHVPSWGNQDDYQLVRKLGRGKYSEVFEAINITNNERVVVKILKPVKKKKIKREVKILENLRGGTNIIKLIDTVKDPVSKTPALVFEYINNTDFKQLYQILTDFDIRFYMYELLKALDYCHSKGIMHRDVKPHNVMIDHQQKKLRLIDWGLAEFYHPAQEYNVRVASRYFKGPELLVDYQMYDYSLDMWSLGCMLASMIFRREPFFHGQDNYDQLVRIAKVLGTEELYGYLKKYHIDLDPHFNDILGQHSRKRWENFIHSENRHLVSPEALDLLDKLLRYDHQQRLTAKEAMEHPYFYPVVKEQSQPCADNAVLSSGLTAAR
Sequence of MAPK13 (human) (O15264 whole entry, looked up): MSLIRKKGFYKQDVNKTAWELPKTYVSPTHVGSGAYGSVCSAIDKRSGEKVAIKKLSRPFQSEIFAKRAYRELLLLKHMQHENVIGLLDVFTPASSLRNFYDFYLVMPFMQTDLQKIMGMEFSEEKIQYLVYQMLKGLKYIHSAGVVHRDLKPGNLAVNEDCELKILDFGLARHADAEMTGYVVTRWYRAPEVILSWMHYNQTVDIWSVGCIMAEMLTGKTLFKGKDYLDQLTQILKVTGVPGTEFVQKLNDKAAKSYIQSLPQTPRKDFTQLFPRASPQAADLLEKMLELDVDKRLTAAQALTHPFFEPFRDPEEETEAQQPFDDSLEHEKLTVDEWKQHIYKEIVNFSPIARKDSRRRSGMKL

`O=C1Cc2c([nH]c3ccc(Br)cc23)-c2ccccc2N1` gave a residual activity (MAP4K5 (human)) of 30.1%, a residual activity (SRMS (human)) of 105% and a residual activity (CAMK2B (human)) of 97.8%. It also gave a residual activity (IKBKB (human)) of 101%, a residual activity (MAPK3 (human)) of 100% and a residual activity (TYRO3 (human)) of 97.7%. For the same compound, the residual activity (NTRK3 (human)) was 70.7%, the residual activity (PDPK1 (human)) was 94.9% and the residual activity (FGFR1 (human)) was 99.4%. The residual activity (CSNK2A2 (human)) was 74.6%, the residual activity (STK3 (human)) was 83.2% and the residual activity (IKBKE (human)) was 89.8%. It also gave a residual activity (CDK4 CCND1 (human)) of 84%, a residual activity (ROCK2 (human)) of 84.6% and a residual activity (MAPK13 (human)) of 103%. It also gave a residual activity (MELK (human)) of 74.8%, a residual activity (FES (human)) of 87.8% and a residual activity (HIPK3 (human)) of 109%. It also gave a residual activity (EPHA8 (human)) of 101%, a residual activity (MAP3K5 (human)) of 99.2% and a residual activity (PHKG1 (human)) of 49.7%. It also gave a residual activity (TAOK3 (human)) of 82.8%, a residual activity (MAP4K4 (human)) of 6.61% and a residual activity (CSNK1G1 (human)) of 102%. It also gave a residual activity (CLK2 (human)) of 95.7%, a residual activity (CDK1 CCNB1 (human)) of 80.6% and a residual activity (EPHB3 (human)) of 92.3%. The residual activity (MAP2K1 (human)) was 84.3%, the residual activity (ULK2 (human)) was 90.1% and the residual activity (AKT1 (human)) was 99.9%. It also gave a residual activity (CHEK1 (human)) of 89%, a residual activity (CDK3 CCNE1 (human)) of 81.7% and a residual activity (GRK4 (human)) of 97.9%. It also gave a residual activity (MARK1 (human)) of 88.3%, a residual activity (CAMK1G (human)) of 97.4% and a residual activity (EPHA5 (human)) of 96.6%. It also gave a residual activity (CSNK1G3 (human)) of 103%, a residual activity (FGFR4 (human)) of 113% and a residual activity (SLK (human)) of 95.7%. The residual activity (CAMK2D (human)) was 91.1% and the residual activity (CAMK1D (human)) was 112%.
In the case of `O=C1NC(=O)C(c2c[nH]c3ccccc23)=C1c1c[nH]c2ccccc12`, the residual activity (MAP4K5 (human)) was 87.1%, the residual activity (SRMS (human)) was 82.4% and the residual activity (CAMK2B (human)) was 96.9%. For the same compound, the residual activity (IKBKB (human)) was 106%, the residual activity (MAPK3 (human)) was 105% and the residual activity (TYRO3 (human)) was 101%. For the same compound, the residual activity (NTRK3 (human)) was 72.5%, the residual activity (PDPK1 (human)) was 96.7% and the residual activity (FGFR1 (human)) was 41.4%. For the same compound, the residual activity (CSNK2A2 (human)) was 92%, the residual activity (STK3 (human)) was 64.7% and the residual activity (IKBKE (human)) was 103%. It also gave a residual activity (CDK4 CCND1 (human)) of 97.4%, a residual activity (ROCK2 (human)) of 89.2% and a residual activity (MAPK13 (human)) of 104%. It also gave a residual activity (MELK (human)) of 82%, a residual activity (FES (human)) of 99.8% and a residual activity (HIPK3 (human)) of 96%. It also gave a residual activity (EPHA8 (human)) of 103%, a residual activity (MAP3K5 (human)) of 106% and a residual activity (PHKG1 (human)) of 74.9%. It also gave a residual activity (TAOK3 (human)) of 85.2%, a residual activity (MAP4K4 (human)) of 58.5% and a residual activity (CLK2 (human)) of 46.7%. The residual activity (CDK1 CCNB1 (human)) was 96.5%, the residual activity (EPHB3 (human)) was 94.3% and the residual activity (MAP2K1 (human)) was 95.8%. The residual activity (ULK2 (human)) was 92.9%, the residual activity (AKT1 (human)) was 87.7% and the residual activity (CHEK1 (human)) was 93.1%. For the same compound, the residual activity (CDK3 CCNE1 (human)) was 91.5%, the residual activity (GRK4 (human)) was 97.1% and the residual activity (MARK1 (human)) was 90.6%. The residual activity (CAMK1G (human)) was 99.5%, the residual activity (EPHA5 (human)) was 95.3% and the residual activity (CSNK1G3 (human)) was 89.9%. The residual activity (FGFR4 (human)) was 87.8%, the residual activity (SLK (human)) was 45.4% and the residual activity (CAMK2D (human)) was 65%. For the same compound, the residual activity (CAMK1D (human)) was 106%.
`COc1ccc(CNC(=O)Nc2ncc([N+](=O)[O-])s2)cc1` showed a residual activity (MAP4K5 (human)) of 93.9%, a residual activity (SRMS (human)) of 93.3% and a residual activity (CAMK2B (human)) of 103%. The residual activity (IKBKB (human)) was 94.9%, the residual activity (MAPK3 (human)) was 103% and the residual activity (TYRO3 (human)) was 100%. The residual activity (NTRK3 (human)) was 98.7%, the residual activity (PDPK1 (human)) was 90% and the residual activity (FGFR1 (human)) was 98.9%. The residual activity (CSNK2A2 (human)) was 92.9%, the residual activity (STK3 (human)) was 92.6% and the residual activity (IKBKE (human)) was 99.8%. It also gave a residual activity (CDK4 CCND1 (human)) of 97.3%, a residual activity (ROCK2 (human)) of 99.8% and a residual activity (MAPK13 (human)) of 91.1%. The residual activity (FES (human)) was 97.7%, the residual activity (HIPK3 (human)) was 91.9% and the residual activity (EPHA8 (human)) was 109%. For the same compound, the residual activity (MAP3K5 (human)) was 87.8%, the residual activity (PHKG1 (human)) was 101% and the residual activity (TAOK3 (human)) was 98.5%. For the same compound, the residual activity (MAP4K4 (human)) was 98.8%, the residual activity (CSNK1G1 (human)) was 97.8% and the residual activity (CLK2 (human)) was 97.4%. The residual activity (CDK1 CCNB1 (human)) was 85.1%, the residual activity (EPHB3 (human)) was 101% and the residual activity (MAP2K1 (human)) was 101%. It also gave a residual activity (ULK2 (human)) of 93.4%, a residual activity (AKT1 (human)) of 102% and a residual activity (CHEK1 (human)) of 98%. It also gave a residual activity (CDK3 CCNE1 (human)) of 94.8%, a residual activity (GRK4 (human)) of 92.1% and a residual activity (MARK1 (human)) of 106%. The residual activity (CAMK1G (human)) was 99.6%, the residual activity (EPHA5 (human)) was 117% and the residual activity (CSNK1G3 (human)) was 90.4%. It also gave a residual activity (FGFR4 (human)) of 98.9%, a residual activity (SLK (human)) of 88.9% and a residual activity (CAMK2D (human)) of 98.3%. It also gave a residual activity (CAMK1D (human)) of 112%.
